Assay results reported in PubChem BioAssay (NCI).
Where “and” joins values, the source holds several entries; their conditions need not be identical. Identical values can stand only once.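 Briefly, cells in 96-well plates were exposed to five compound concentrations for 48 h, and endpoints were estimated by linear interpolation. GI50 marks 50% less growth. The concentration for full growth arrest is given as TGI.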

Tests used:
Assay in all cases: NCI tumour cell line growth inhibition, 48 h
SK-MEL-2 melanoma = tested on: SK-MEL-2 melanoma
HCC-2998 colon = tested on: HCC-2998 colon
OVCAR-8 ovarian = tested on: OVCAR-8 ovarian
MOLT-4 leukemia = tested on: MOLT-4 leukemia
CCRF-CEM leukemia = tested on: CCRF-CEM leukemia
TK-10 renal = tested on: TK-10 renal
UACC-257 melanoma = tested on: UACC-257 melanoma
SF-295 CNS = tested on: SF-295 CNS
UACC-62 melanoma = tested on: UACC-62 melanoma
HCT-15 colon = tested on: HCT-15 colon

| Structure (SMILES) | TGI (SK-MEL-2 melanoma) | TGI (HCC-2998 colon) | TGI (OVCAR-8 ovarian) | TGI (MOLT-4 leukemia) | TGI (CCRF-CEM leukemia) | TGI (TK-10 renal) | TGI (UACC-257 melanoma) | TGI (SF-295 CNS) | TGI (UACC-62 melanoma) | TGI (HCT-15 colon) | GI50 (SK-MEL-2 melanoma) | GI50 (HCC-2998 colon) | GI50 (OVCAR-8 ovarian) | GI50 (MOLT-4 leukemia) | GI50 (CCRF-CEM leukemia) | GI50 (TK-10 renal) | GI50 (UACC-257 melanoma) | GI50 (SF-295 CNS) | GI50 (HCT-15 colon) | GI50 (UACC-62 melanoma) |
| --- | --- | --- | --- | --- | --- | --- | --- | --- | --- | --- | --- | --- | --- | --- | --- | --- | --- | --- | --- | --- |
| CC(=O)OC1CCC2OOC1O2 (stereo not given) | > 100 µM | > 100 µM | > 100 µM | > 100 µM | > 100 µM | > 100 µM | > 100 µM | > 100 µM | > 100 µM | > 100 µM |  |  |  |  |  |  |  |  |  |  |
| CCN1CCN(c2nc(C)cc(NCc3cc(Nc4ccnc5cc(Cl)ccc45)ccc3F)n2)CC1 | 4.1 µM | 3.89 µM | 13.7 µM | 16.6 µM | 15.2 µM | 6.04 µM | 3.79 µM | 2.61 µM |  | 3.66 µM | 2.12 µM | 1.78 µM | 3.2 µM | 2.44 µM | 2.06 µM | 2.39 µM | 1.89 µM | 1.05 µM | 1.46 µM |  |
| Cc1ccc2c(c1)-c1c3c(nn1C)-c1ccccc1SC3O2 (stereo not given) | > 100 µM | > 100 µM | > 100 µM | > 100 µM | > 100 µM | > 100 µM | > 100 µM | > 100 µM |  |  |  |  |  |  |  |  |  |  |  |  |
| Cc1nc2sc(C(=O)Nc3cccc(Br)c3C)c(N)c2cc1C(O)c1ccccc1 (stereo not given) | 15.7 µM | 2.12 µM | > 100 µM | > 100 µM | > 100 µM | > 63 µM | 27 µM | 6.64 µM | 9.59 µM | 11.5 µM | 0.249 µM | 0.0351 µM | 0.0487 µM | 0.0556 µM | 0.0406 µM | 1.49 µM | 1.46 µM | 0.0335 µM | 0.0348 µM | 0.0566 µM |
| O=C(O)c1ccc2c(c1)C(=O)N(c1ccc(S(=O)(=O)c3ccc(N4C(=O)c5ccc(C(=O)O)cc5C4=O)cc3)cc1)C2=O | > 100 µM |  | > 100 µM | > 100 µM | > 100 µM | > 100 µM | > 100 µM | > 100 µM | > 100 µM | > 100 µM |  |  |  |  |  |  |  |  |  |  |
| COc1cccc2c1C(=O)c1c(O)c3c(c(O)c1C2=O)C[C@@](O)(C(=O)CO)CC3OC1CC(N)C(OC2CCCCO2)C(C)O1 (stereo not given in full) | 4.1 µM |  |  | 0.276 µM and 0.576 µM |  |  | 0.455 µM and 3.42 µM | 1.13 µM and 2.44 µM |  | 2.36 µM and 13.3 µM |  | 0.0457 µM | 0.018 µM | < 0.001 µM | 0.00327 µM | 0.0368 µM | 0.129 µM | 0.00963 µM | 0.034 µM | 0.0205 µM |
| COc1ccc(CN2C(=O)[C@@H]3Cc4c(OC)c(C)c(OC)c(OC)c4[C@H](/C2=C\c2cc(OC)c(OC)c(C)c2OC)N3C(=O)OC(C)C)cc1 | > 100 µM | > 100 µM | > 100 µM | > 100 µM | > 100 µM | > 100 µM | > 100 µM | > 100 µM | > 100 µM |  |  |  |  |  |  |  |  |  |  |  |
| Cc1ccccc1NC(=O)/C(=N\NC(N)=S)C(C#N)c1ccccc1 (stereo not given) | > 100 µM | > 100 µM | > 100 µM | > 100 µM | > 100 µM | > 100 µM | > 100 µM | > 100 µM | > 100 µM | > 100 µM |  |  |  |  |  |  |  |  |  |  |
| CC1=CC(=O)N(c2cccc3c(N4C(=O)C=C(C)C4=O)cccc23)C1=O | > 100 µM | 34.3 µM | 16.5 µM | 11.1 µM | 11.1 µM | 7.83 µM | 25 µM | > 71.5 µM | 20.5 µM | 10.2 µM | 31.5 µM | 18.4 µM | 3.36 µM | 3.29 µM | 1.52 µM | 3.1 µM | 3.97 µM | > 46.7 µM | 2.67 µM | 7.68 µM |
| Nc1ccccc1C#C/C=C\C#Cc1ccccc1C#CCO | 24.2 µM | 10.6 µM | 27.1 µM |  |  | 27.5 µM | 45.2 µM | 16.7 µM | 15.3 µM | 18.3 µM | 8.35 µM | 2.95 µM | 8.36 µM |  |  | 11.8 µM | 11.4 µM | 6.8 µM | 4.92 µM | 5.69 µM |
| O=C(Nc1ccncc1)C(=O)c1cn(S(=O)(=O)c2cccc(Cl)c2)c2ccccc12 | > 100 µM | > 100 µM | > 100 µM | > 100 µM |  | 75.9 µM | > 100 µM | 37.1 µM | > 100 µM | > 100 µM | 11 µM | 13.9 µM | 7.98 µM | 5.55 µM |  | 23.5 µM | 24.7 µM | 2.92 µM | 3.24 µM | 5.81 µM |
| NS(=O)(=O)c1ccc(N=Nc2ccc[nH]c2=O)cc1 | > 100 µM |  | > 100 µM | > 100 µM | 74.6 µM | > 100 µM | > 100 µM | > 100 µM | > 100 µM | > 100 µM |  |  |  |  |  |  |  |  |  |  |
| O=C(Oc1ccccc1)N(c1ccccc1)c1ccccc1 | > 100 µM |  | > 100 µM | > 100 µM | > 100 µM | > 100 µM | 83 µM | 58.7 µM | > 100 µM | > 100 µM | 30.6 µM |  | 31.8 µM | 28.3 µM | 37 µM | 37.1 µM | 26.4 µM | 18.8 µM | 31.1 µM | 22.3 µM |
| Cc1ccccc1NC(=O)Cc1nc2ccccc2s1 | 29.9 µM | 64.9 µM | 32.4 µM | 41.5 µM | 33 µM | 41 µM | 30.8 µM | 29.2 µM | 35.7 µM |  |  |  |  |  |  |  |  |  |  |  |
| CC1(C)c2ccccc2N2C(c3ccccc3)=NOC21C (stereo not given) | > 100 µM |  | > 100 µM | > 100 µM | > 100 µM | > 100 µM | > 100 µM | > 100 µM | > 100 µM | > 100 µM |  |  |  |  |  |  |  |  |  |  |
| COc1cc(C(=O)/C=C/c2cc(-c3ccc4c(c3)OCO4)n[nH]2)cc(OC)c1OC |  | 4.07 µM | 6.37 µM | 8.36 µM | 5.74 µM | 7.17 µM | 9.46 µM | 10.1 µM | 3.89 µM | 6.75 µM |  | 2.02 µM | 2.35 µM | 2.71 µM | 2 µM | 2.9 µM | 2.95 µM | 2.58 µM | 1.95 µM | 1.81 µM |
